# Key:
# Apis mellifera = conditions: acute, mortality
# Daphnia magna = conditions: chronic/long-term; duration: 21 days
# Orius insidiosus = conditions: acute, duration: 7 days
# Rattus norvegicus = conditions: oral; for NOAEL: diet, neurology
# Tagia sp. = conditions: mortality
smiles,measurement,setting,value
COP(=S)(OC)Oc1ccc([N+](=O)[O-])c(C)c1 [Fenitrothion],LD50,Apis mellifera; dermal,0.16 µg/piece
same,LD50,"Apis mellifera; oral, unspecified",0.2 µg/piece
same,LD50,"Bird; acute, oral, unspecified, mortality",2.3 mg/kg-day
same,NOEC,Bird; reproductive,2.34 mg/kg
same,LC50,"Bird; short-term, oral, feed, mortality",23 mg/kg
same,NOEC,Daphnia magna,0.087 µg/L
same,LC50,"Oncorhynchus mykiss; acute, duration: 96 hours, mortality",1.3 µg/mL
same,NOEC,"Oncorhynchus mykiss; chronic/long-term, duration: 96 days",0.088 mg/L
same,LEL,Orius insidiosus; mortality,715 g/ha
same,LEL,Orius insidiosus; reproduction,715 g/ha
same,LD50,"Rattus norvegicus; acute, mortality",330 mg/kg-day
same,NOAEL,"Rattus norvegicus; chronic, duration: 2 years",0.5 mg/kg-day
same,NOAEL,"Rattus norvegicus; subchronic, duration: 90 days",1.32 mg/kg-day
same,LC50,Tagia sp.; acute,231 mg/kg
same,NOEC,Tagia sp.; chronic/long-term,2.5 mg/kg

# From EPA's ToxValDB 9.5 (doi:10.2903/j.efsa.2006.59r)
